Reference: PubChem BioAssay (NCI)
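Grown in 96-well plates, cells were treated for 48 hours with each compound at five concentrations. Insufficient inhibition: endpoint recorded as highest concentration tested. The concentration for 50% growth inhibition is given as GI50. TGI marks complete inhibition of growth.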

Columns and labels:
Experiment in all cases: NCI anticancer screen, dose series, 48 h
[1] = system: A498 renal
[2] = system: RXF 393 renal
[3] = system: UACC-257 melanoma
[4] = system: NCI-H23 lung
[5] = system: SF-295 CNS
[6] = system: CCRF-CEM leukemia
[7] = system: MALME-3M melanoma
[8] = system: HOP-62 NSCLC
[9] = system: ACHN renal
[10] = system: SR leukemia
[11] = system: M14 melanoma
[12] = system: MDA-MB-231 breast
[13] = system: EKVX NSCLC
[14] = system: SNB-19 CNS
[15] = system: HCT-116 colon
[16] = system: OVCAR-4 ovarian
[17] = system: MDA-MB-435
[18] = system: SF-539 CNS
[19] = system: DU-145 prostate
[20] = system: HCT-15 colon
[21] = system: SW-620 colon
[22] = system: UO-31 renal
[23] = system: A549 NSCLC
[24] = system: TK-10 renal
[25] = system: SK-MEL-5 melanoma
[26] = system: NCI/ADR-RES ovarian
[27] = system: HS 578T breast
[28] = system: SF-268 CNS
[29] = system: SNB-75 CNS
[30] = system: K-562 leukemia
[31] = system: SK-MEL-28 melanoma
[32] = system: LOX IMVI melanoma
[33] = system: HCC-2998 colon
[34] = system: OVCAR-5 ovarian
[35] = system: SK-OV-3 ovarian
[36] = system: U251 CNS
[37] = system: RPMI-8226 leukemia
[38] = system: CAKI-1 renal
[39] = system: OVCAR-3 ovarian
[40] = system: HOP-92 NSCLC
[41] = system: COLO 205 colon
[42] = system: SK-MEL-2 melanoma
[43] = system: PC-3 prostate
[44] = system: KM12 colon
[45] = system: UACC-62 melanoma
[46] = system: MOLT-4 leukemia
[47] = system: 786-0 renal
[48] = system: BT-549 breast
[49] = system: NCI-H522 lung

## Cc1ccc2ccc3ccc(C)nc3c2n1.Cc1ccc2ccc3ccc(C)nc3c2n1.Oc1c(Cl)cc(Cl)c2ccc(CN3CCCCC3)nc12.[Ru]
[1]
  GI50: 1760 nM
  TGI: 4020 nM
[2]
  GI50: 714 nM
  TGI: 1990 nM
[3]
  GI50: 350 nM
  TGI: 1230 nM
[4]
  GI50: 300 nM
  TGI: 1130 nM
[5]
  GI50: 286 nM
  TGI: 1160 nM
[6]
  GI50: 423 nM
  TGI: 2200 nM
[7]
  GI50: 248 nM
  TGI: 666 nM
[8]
  GI50: 409 nM
  TGI: 1410 nM
[9]
  GI50: 1650 nM
  TGI: 3230 nM
[10]
  GI50: 345 nM
  TGI: 1750 nM
[11]
  GI50: 383 nM
  TGI: 1440 nM
[12]
  GI50: 295 nM
  TGI: 909 nM
[13]
  GI50: 363 nM
  TGI: 2210 nM
[14]
  GI50: 331 nM
  TGI: 1280 nM
[15]
  GI50: 247 nM
  TGI: 1230 nM
[16]
  GI50: 362 nM
  TGI: 1840 nM
[17]
  GI50: 333 nM
  TGI: 1230 nM
[18]
  GI50: 366 nM
  TGI: 1290 nM
[19]
  GI50: 494 nM
  TGI: 4910 nM
[20]
  GI50: 1280 nM
  TGI: 2770 nM
[21]
  GI50: 381 nM
  TGI: 1610 nM
[22]
  GI50: 1720 nM
  TGI: 3880 nM
[23]
  GI50: 326 nM
  TGI: 1280 nM
[24]
  GI50: 734 nM
  TGI: 2070 nM
[25]
  GI50: 675 nM
  TGI: 1860 nM
[26]
  GI50: 2700 nM
  TGI: 7990 nM
[27]
  GI50: 354 nM
  TGI: 2320 nM
[28]
  GI50: 447 nM
  TGI: 2210 nM
[29]
  GI50: 243 nM
  TGI: 1120 nM
[30]
  GI50: 253 nM
  TGI: 1890 nM
[31]
  GI50: 513 nM
  TGI: 1780 nM
[32]
  GI50: 341 nM
  TGI: 1230 nM
[33]
  GI50: 414 nM
  TGI: 1580 nM
[34]
  GI50: 599 nM
  TGI: 3010 nM
[35]
  GI50: 293 nM
  TGI: 1070 nM
[36]
  GI50: 218 nM
  TGI: 1160 nM
[37]
  GI50: 223 nM
  TGI: 876 nM
[38]
  GI50: 1430 nM
  TGI: 2830 nM
[39]
  GI50: 387 nM
  TGI: 1380 nM
[40]
  GI50: 109 nM
  TGI: 835 nM
[41]
  GI50: 195 nM
  TGI: 429 nM
[42]
  GI50: 613 nM
  TGI: 1840 nM
[43]
  GI50: 303 nM
  TGI: 1500 nM
[44]
  GI50: 411 nM
  TGI: 1520 nM
[45]
  GI50: 445 nM
  TGI: 1670 nM
[46]
  GI50: 461 nM
  TGI: 2220 nM
[47]
  GI50: 542 nM
  TGI: 1780 nM
[48]
  GI50: 337 nM
  TGI: 931 nM
[49]
  GI50: 363 nM
  TGI: 2130 nM
